Experimental findings from ChEMBL document CHEMBL3727361, “Nitrogen bicyclic compounds as inhibitors for Scyl1 and Grk5” (2014) are described below.

Each structure is given as a SMILES string.

One data set concerns Beta-TC6. In words: Increase in insulin release in mouse BetaTC6 cells assessed as relative insulin release activity at 10 uM incubated for 2 to 4 hrs by FRET based HTRF assay relative to sunitinib. The class given is functional.
Settings: not given
Turning to `COc1cc(-c2ccc3ncc(-c4cccc(C(=O)NCCN(C)C)c4)n3n2)ccc1O`, the Activity worked out at 10%. As to `NC(=O)c1ccc(-c2cnc3ccc(Cc4ccccc4)nn23)cc1`, the Activity is 20%. Still for that read-out and setting: in the case of `Cn1cc(-c2ccc3ncc(-c4cccs4)n3n2)cn1` it was 20%; in that of `NC(=O)c1ccc(-c2cnc3ccc(Cc4ccc(F)cc4)nn23)cc1`, 20%; in that of `CC(=O)Nc1ccc(-c2ccc3nnc(-c4cccc(Cl)c4)n3c2)cc1`, 20%. Still for that read-out and setting: in the case of `Cn1cncc1C#Cc1ccc2nnc(-c3ccc4c(c3)OCO4)n2c1` it was 20%; in that of `Clc1cccc(-c2nnc3ccc(-c4ccc5c(c4)OCO5)cn23)c1`, 50%.

Regarding `CC(C)(C)c1ccc(-c2cnc3cnc(-c4ccc(N)nc4)cn23)cc1`, the Activity is on record as 10%.

Regarding `OCc1ccc(-c2cnc3cnc(-c4ccc(Cl)cc4Cl)cn23)cc1`, the Activity stood at 20%.

`N#Cc1ccc(-c2cnc3cnc(-c4ccc(CO)cc4)cn23)cc1`: the Activity turned out to be 20%. As to `OCc1cccc(-c2cnc3ccc(-c4cccc(Oc5ccccc5)c4)nn23)c1`, the Activity is 20%. Turning to `Clc1cccc(-c2nnc3ccc(-c4cccnc4)cn23)c1`, the Activity was 50%. For `CNc1ccc2ncc(-c3cccc(C(=O)N(C)C)c3)n2n1`, the Activity is on record as 20%. For the molecule `COc1ccc(-c2cn3c(-c4ccc(OC)nc4)cnc3cn2)cn1`, the Activity turned out to be 20%. With `COc1cc(-c2cn3c(-c4ccc5ncccc5c4)cnc3cn2)cc(OC)c1OC`, the Activity turned out to be 20%.

With `Oc1cccc(-c2cnc3ccc(-c4cccc5ncccc45)nn23)c1`, the Activity is given as 10%.

As for `O=C(NCCO)c1ccc(-c2cn3c(-c4cccs4)cnc3cn2)cc1`, the Activity is listed as 10%. On the same count and under the same terms, in the case of `CN(C)c1cccc(-c2ccc3ncc(-c4cccs4)n3n2)c1` it was 20%; in that of `CN1CCN(c2ccc(-c3cn4c(-c5ccc(C(=O)N(C)C)cc5)cnc4cn3)cn2)CC1`, 20%. On to `CN(C)c1ccc(-c2ccc3nnc(-c4cccnc4)n3c2)cc1`, for which the Activity was 50%. Still for that read-out and setting: in the case of `COc1ccc(-c2cn3c(-c4ccc(N(C)C)cc4)cnc3cn2)cn1` it was 50%; in that of `COc1ccc(-c2ccc3nnc(-c4ccncc4)n3c2)cc1OC`, 20%. As to `CN(C)c1ccc(-c2cnc3cnc(-c4ccc(C(=O)N5CCOCC5)cc4)cn23)cc1`, the Activity worked out at 20%.

Turning to `OC1CCC(Nc2ccc3ncc(Br)n3n2)CC1` (configuration not stated), the Activity is listed as 10%. Same read-out and setting: for `COc1ccc(-c2cnc3ccc(NCCCO)nn23)c(OC)c1` the value was 10%. The same measure, in the same setting: in the case of `CC(=O)Nc1cccc(-c2cnc3ccc(NCc4ccc(F)cc4)nn23)c1` it was 10%; in that of `Cc1ccccc1-c1nnc2ccc(-c3cccc(C(=O)NCCO)c3)cn12`, 10%.

In the case of `COc1cc(-c2ccc3nnc(-c4cccc(C(F)(F)F)c4)n3c2)cc(OC)c1OC`, the Activity is recorded as 50%. Take `CN1CCN(c2ccc(-c3cnc4cccnn34)cn2)CC1`: the Activity is listed as 10%. As for `c1csc(-c2cnc3cnc(-c4ccsc4)cn23)c1`, the Activity turned out to be 50%.

Regarding `c1cncc(-c2cnc3ccc(-c4cccs4)nn23)c1`, the Activity is recorded as 20%.

For `CN(C)CCNC(=O)c1ccc(-c2cn3c(-c4ccc(N(C)C)cc4)cnc3cn2)cc1`, the Activity stood at 50%. Turning to `COc1cc(-c2cnc3cnc(-c4ccc(N5CCN(C)CC5)nc4)cn23)cc(OC)c1OC`, the Activity is recorded as 20%.

Take `Cc1cc(-c2cn3c(-c4ccc5ncccc5c4)cnc3cn2)cc(C)c1O`: the Activity is reported as 20%. On to `CN1CCN(C(=O)c2cccc(-c3cnc4cnc(-c5ccccc5Oc5ccccc5)cn34)c2)CC1`, for which the Activity stood at 20%. Take `CN(C)c1cccc(-c2cnc3cnc(-c4ccncc4)cn23)c1`: the Activity was 20%.

Turning to `COc1cccc(CC(=O)Nc2cnc3cnc(-c4ccc5[nH]ccc5c4)cn23)c1`, the Activity was 10%. With `COc1ccc(-c2nnc3ccc(-c4cccc(N(C)C)c4)cn23)cc1OC`, the Activity came out at 50%. Still for that read-out and setting: for `c1cc(-c2nnc3ccc(-c4ccc(N5CCOCC5)cc4)cn23)ccn1` the value was 20%.

For `CN(C)CCCOc1ccc(-c2cn3c(-c4cccc(N(C)C)c4)cnc3cn2)cn1`, the Activity came to 20%.

For `CN1CCN(C(=O)c2cccc(-c3ccc4nnc(-c5ccc6nccnc6c5)n4c3)c2)CC1`, the Activity was 20%. For the molecule `FC(F)(F)Oc1cccc(-c2cnc3cnc(-c4cccnc4)cn23)c1`, the Activity was 20%. Take `O=C(c1ccc(-c2ccc3nnc(-c4cccc(C(F)(F)F)c4)n3c2)cc1)N1CCOCC1`: the Activity is 20%. With `O=C(NCCO)c1ccc(-c2cnc3cccnn23)cc1`, the Activity was 10%. `c1cc(-c2ccc3nnc(-c4ccc5c(c4)OCO5)n3c2)co1`: the Activity was 50%.

As for `COc1cc(-c2cnc3cnc(-c4ccc(NCCN5CCOCC5)nc4)cn23)ccc1O`, the Activity is given as 20%. For the molecule `Oc1cccc(-c2cnc3cnc(-c4cc5ccccc5s4)cn23)c1`, the Activity is listed as 50%.

Turning to `Fc1cccc(-c2ccc3ncc(-c4ccc5c(c4)OCO5)n3n2)c1`, the Activity was 20%. In the case of `Nc1cccc(-c2cn3c(NC(=O)Cc4ccc(F)c(F)c4)cnc3cn2)c1`, the Activity came to 10%. Turning to `Clc1ccccc1-c1ccc2nnc(-c3cscn3)n2c1`, the Activity came out at 50%. For the molecule `O=C(NCCO)c1cccc(-c2cn3c(-c4cccc(OC(F)(F)F)c4)cnc3cn2)c1`, the Activity is reported as 20%. As for `C(#Cc1ccccn1)c1ccc2nnc(-c3ccccc3)n2c1`, the Activity amounted to 50%.

Regarding `COc1cc(-c2ccc3nnc(-c4ccoc4)n3c2)cc(OC)c1OC`, the Activity stood at 50%. In the case of `c1csc(-c2cn3c(-c4ccsc4)cnc3cn2)c1`, the Activity was determined as 50%. On to `COc1ccc(-c2nnc3ccc(-c4cccs4)cn23)cc1OC`, for which the Activity was found to be 50%.

With `CN(C)c1ccc(-c2cnc3cnc(-c4cccc(C(=O)NCCO)c4)cn23)cc1`, the Activity was determined as 20%. For the molecule `Clc1ccc(-c2cnc3cnc(-c4ccsc4)cn23)cc1`, the Activity came out at 50%. Consider `Oc1ccc(-c2cnc3cnc(-c4ccc(Cl)cc4)cn23)cc1`, for which the Activity turned out to be 20%.

For the molecule `COc1cc(-c2ccc3nnc(-c4ccc5nccnc5c4)n3c2)ccc1O`, the Activity amounted to 50%. For `OCc1ccc(-c2cnc3cnc(-c4ccco4)cn23)cc1`, the Activity came to 20%. Consider `CC(C)Oc1cccc(-c2cn3c(-c4cccs4)cnc3cn2)c1`, for which the Activity turned out to be 20%. As to `Clc1cccc(-c2nnc3ccc(-c4ccncc4)cn23)c1`, the Activity is listed as 50%.

The test system of another data set is C2C12. The experiment in a line: Cytotoxic activity against mouse C2C12 cells assessed as inhibition of cell proliferation of at 2 to 10 uM incubated for 72 hrs by MTT assay. The class given is cell-based. The settings on record: c2c12, 72 h.
For the molecule `COc1cc(-c2ccc3ncc(-c4cccc(C(=O)NCCN(C)C)c4)n3n2)ccc1O`, the Activity result is “Toxic”. On the same count and under the same terms, in the case of `NC(=O)c1ccc(-c2cnc3ccc(Cc4ccccc4)nn23)cc1` it was “Toxic”; in that of `Cn1cc(-c2ccc3ncc(-c4cccs4)n3n2)cn1`, “Toxic”; in that of `NC(=O)c1ccc(-c2cnc3ccc(Cc4ccc(F)cc4)nn23)cc1`, “Toxic”.

System in a further data set: not listed separately
In words: Effect on insulin release in mouse BetaTC6 cells assessed as ratio of insulin release incubated for 2 hrs in presence of low glucose media by ELISA relative to DMSO. The format is cell-based. The conditions noted are these: beta-tc6, 2 h. In general terms: ELISA stands for enzyme-linked immunosorbent assay.
Consider `Cn1cc(-c2ccc3ncc(-c4cccs4)n3n2)cn1`, for which the Activity result was “Non-toxic”.
